Results from article PMC6348443 (Journal of Medicinal Chemistry, 2018).
Where a name gives a salt, the structure may show the parent alone.

How the values were obtained:
DOR [1] = molecular target: T1, DOR (Rattus norvegicus, UniProt P33533); test: competition radioligand binding, rat brain membranes, [3H][Ile5,6]deltorphin II; conditions: rat brain membranes; read-out: opioid receptor binding Ki DOR
T1 construct: Membranes were prepared from Sprague-Dawley rat brains or guinea-pig brains according to the described procedures; tissue Labortierkunde und Laborgenetik, Medizinische Universität Wien; host or cells: Sprague-Dawley rat brain without cerebella
Method: (§1) Competition binding assays using rat brain (MOR and DOR) and guinea-pig brain (KOR) membranes (Table 1) were performed according to published procedures.[44],[49] […] In addition, we have assessed binding at the human opioid receptors stably transfected in Chinese hamster ovary (CHO) cells (Table S1).
(§2) Membranes were prepared from Sprague-Dawley rat brains or guinea-pig brains according to the described procedures.[44],[45] Brains without cerebella were homogenized on ice in 5 vol/wt of ice-cold 50 mM Tris-HCl buffer (pH 7.4) and diluted in 30 vol/wt of the same buffer. After centrifugation at 40 000g for 20 min at 4 °C, the pellets were resuspended in 30 vol/wt of 50 mM Tris-HCl buffer (pH 7.4) and incubated at 37 °C for 30 min. The centrifugation step described above was repeated, and the final pellets were resuspended in 5 vol/wt of 50 mM Tris-HCl buffer (pH 7.4) containing 0.32 M sucrose and stored at −80 °C until use.
(§3) Rat brain membranes were incubated with either [^3H]DAMGO (1 nM, 45 min, 35 °C) or [^3H][Ile^5,6]deltorphin II (0.5 nM, 45 min, 35 °C) for labeling MOR or DOR receptors, respectively. Guinea-pig brain membranes were incubated with [^3H]U69,593 (1 nM, 30 min, 30 °C) for labeling KOR. Binding assays with CHO cell membranes were conducted at 25 °C for 60 min using [^3H]DAMGO (1 nM) or [^3H]diprenorphine (0.2 nM) for labeling MOR or DOR, respectively. Nonspecific binding was determined using 10 μM naloxone (rodent brain) or 1–10 μM of the unlabeled counterpart of each radioligand (CHO cells). Reactions were terminated by rapid filtration through Whatman glass fiber GF/C filters. Filters were washed three times with 5 mL of ice-cold 50 mM Tris-HCl buffer (pH 7.4) using a Brandel M24R cell harvester (Gaithersburg, MD). Radioactivity retained on the filters was counted by liquid scintillation counting using a Beckman Coulter LS6500 (Beckman Coulter Inc., Fullerton, CA). All binding experiments were performed in duplicate and repeated at least three times.
(§4) Data were analyzed and graphically processed using the GraphPad Prism 5.0 Software (GraphPad Prism Software Inc., San Diego, CA). For in vitro assays, inhibition constant (Ki in nM), potency (EC50 in nM), and efficacy (% stimulation) values were determined from concentration–response curves by nonlinear regression analysis. The Ki values were determined by the method of Cheng and Prusoff.[66] In the [^35S]GTPγS binding assays, efficacy was determined relative to the reference full opioid agonists, DAMGO (MOR), DPDPE (DOR), and U69,593 (KOR). In vitro data are presented as mean ± SEM of three to four independent experiments each performed in duplicate. […] Each experimental group included six to seven mice. Data were statistically evaluated using one-way ANOVA with Tukey’s post hoc test for multiple comparisons with significance set at P < 0.05.

male CD1 mice = test: acetic acid-induced writhing assay after sc administration; format: in vivo, mouse; conditions: Mus musculus, 0.5 h, read-out: ED50 (95% CI), mice, sc, inhibition of writhing 30 min after drug administration
Method: Solutions of test compounds were prepared in sterile physiological 0.9% saline and further diluted to working doses in saline solution. Test compounds or saline (control) were administered by sc route in a volume of 10 μL/1 g of body weight. All doses are expressed in terms of salts. Separate groups of mice received the respective dose of compound, and individual mice were only used once for behavioral testing.
Writhing was induced in male CD1 mice by ip injection of a 0.6% acetic acid aqueous solution as described previously.[48],[62] Groups of mice were administered sc different doses of test compound or saline (control), and 5 min prior to testing (25 min after drug or saline), each animal received an ip injection of acetic acid solution. Each mouse was placed in individual transparent Plexiglas chambers, and the number of writhes was counted during a 10 min observation period. […] For the antagonism study, naloxone methiodide was sc co-administered with the respective opioid agonist, and writhing was assessed as described above.
as §4

KOR [2] = molecular target: T2, KOR (Cavia porcellus, UniProt P41144); test: competition radioligand binding, guinea-pig brain membranes, [3H]U69,593; conditions: guinea-pig brain membranes; read-out: opioid receptor binding Ki KOR
T2 construct: Membranes were prepared from Sprague-Dawley rat brains or guinea-pig brains according to the described procedures; tissue Labortierkunde und Laborgenetik, Medizinische Universität Wien; host or cells: guinea-pig brain without cerebella
Method: as §1, §2, §3, §4

MOR [3] = molecular target: T3, MOR (Homo sapiens, UniProt P35372); test: [35S]GTPγS binding assay, CHO-hMOR membranes; format: biochemical; conditions: for EC50: [35S]GTPγS, CHO human MOR membranes, read-out: MOR EC50; for functional profile at MOR (full/partial agonist): full agonist ≥85% of the response to DAMGO; for Emax: relative to reference full agonist DAMGO, read-out: MOR % stim.
T3 construct: host or cells: CHO (CHO-hMOR)
Method: (§5) Efficacies are presented as percentage stimulation relative to the standard full agonists, [D-Ala^2,N-Me-Phe4,Gly-ol^5]enkephalin (DAMGO for MOR),[53] [D-Pen^2,D-Pen^5]enkephalin (DPDPE for DOR)[54] and N-methyl-2-phenyl-N-[(5R,7S,8S)-7-(pyrrolidin-1-yl)-1-oxaspiro[4.5]dec-8-yl]acetamide (U69,593 for KOR).[55]
(§6) Membranes from CHO cells expressing human opioid receptors were prepared in 50 mM Tris-HCl buffer (pH 7.7) according to a previously described procedure.[64] Cells expressing human opioid receptors grown at confluence were removed from the culture plates by scraping, homogenized in 50 mM Tris buffer (pH 7.7), using a Polytron homogenizer, then centrifuged once and washed by an additional centrifugation at 27 000g for 15 min, at 4 °C. The final pellet was resuspended in Tris buffer and stored at −80 °C until use. Protein content of brain and cell membrane preparation homogenates was determined by the method of Bradford using bovine serum albumin as the standard.[65]
(§7) Binding of [^35S]GTPγS to membranes from CHO cells stably expressing the human opioid receptors was conducted according to the published procedures.[49],[64] Cell membranes (5–10 μg) in 20 mM HEPES, 10 mM MgCl2, and 100 mM NaCl (pH 7.4) were incubated with 0.05 nM [^35S]GTPγS, 10 μM GDP, and various concentrations of test compound in a final volume of 1 mL, for 60 min at 25 °C. Nonspecific binding was determined using 10 μM GTPγS, and the basal binding was determined in the absence of test ligand. Samples are filtered over glass Whatman glass GF/B fiber filters and counted as described for binding assays. All experiments were performed in duplicate and repeated at least three times.
as §4

MOR [4] = molecular target: T4, MOR (Rattus norvegicus, UniProt P33535); test: competition radioligand binding, rat brain membranes, [3H]DAMGO; conditions: for Ki: rat brain membranes, read-out: opioid receptor binding Ki MOR
T4 construct: Membranes were prepared from Sprague-Dawley rat brains or guinea-pig brains according to the described procedures; tissue Labortierkunde und Laborgenetik, Medizinische Universität Wien; host or cells: Sprague-Dawley rat brain without cerebella
Method: as §1, §2, §3, §4

DOR [5] = molecular target: T5, DOR (Homo sapiens, UniProt P41143); test: [35S]GTPγS binding assay, CHO-hDOR membranes; format: biochemical; conditions: for increased agonist potency at DOR vs MOR: [35S]GTPγS EC50; for EC50: [35S]GTPγS, CHO human DOR membranes; for Emax: relative to reference full agonist DPDPE, read-out: DOR % stim.
T5 construct: host or cells: CHO (CHO-hDOR)
Method: as §5, §6, §7, §4

KOR [6] = molecular target: T6, KOR (Homo sapiens, UniProt P41145); test: [35S]GTPγS binding assay, CHO-hKOR membranes; format: biochemical; conditions: for EC50: [35S]GTPγS, CHO human KOR membranes, read-out: KOR EC50; for functional profile at KOR (full/partial agonist): partial agonist <85% of the response to U69,593; for Emax: relative to reference full agonist U69,593, read-out: KOR % stim.
T6 construct: host or cells: CHO (CHO-hKOR)
Method: as §5, §6, §7, §4

Compound | Ki (DOR [1]) [nM] | ED50 (male CD1 mice) [mg/kg] | Ki (KOR [2]) [nM] | EC50 (MOR [3]) [nM] | functional profile at MOR (full/partial agonist) (MOR [3]) | Emax (MOR [3]) [%] | Ki (MOR [4]) [nM] | increased agonist potency at DOR vs MOR (DOR [5]) | EC50 (DOR [5]) [nM] | Emax (DOR [5]) [%] | EC50 (KOR [6]) [nM] | functional profile at KOR (full/partial agonist) (KOR [6]) | Emax (KOR [6]) [%] | increase in MOR binding affinity vs comparator (MOR [4]; rat brain, 17b vs 4b, 16a/b vs 7a/b, 22a/b vs 7a, 7b and 9b, 14a vs 14b) | Ki ratio MOR/DOR/KOR (MOR [4]; from Ki in rat (MOR, DOR) and guinea-pig (KOR) brain membranes)
CO[C@@]12CC[C@@H](N[C@H](C(=O)O)C(C)C)[C@@H]3Oc4c(O)ccc5c4[C@@]31CCN(C)[C@@H]2C5 [Compound 7b, (2S)-2-[(4,5α-Epoxy-3-hydroxy-14β-methoxy-17-methylmorphinan-6β-yl)amino]-3-methylbutyric Acid Dihydrochloride] | 3.52 ± 0.04 | 0.117 | 305 ± 39 | 11.7 ± 5.7 | partial agonist | ~80 | 3.04 ± 0.12 | 2–4 times | 5.73 ± 2.48 | 96 ± 9 | 1120 ± 411 | partial agonist | 68 ± 10 |  | 
CO[C@@]12CC[C@@H](N[C@@H](Cc3ccc(O)cc3)C(=O)O)[C@@H]3Oc4c(O)ccc5c4[C@@]31CCN(C)[C@@H]2C5.Cl.Cl [Compound 9b, (2S)-2-[(4,5α-Epoxy-3-hydroxy-14β-methoxy-17-methylmorphinan-6β-yl)amino]-3-(4-hydroxyphenyl)propionic Acid Dihydrochloride] | 3.89 ± 0.64 |  | 186 ± 33 | 24.7 ± 9.8 |  | 93 ± 7 | 3.2 ± 0.55 | 2–4 times | 6.23 ± 1.03 | 95 ± 0.8 | 774 ± 57 |  | 60 ± 3 |  | 
CO[C@@]12CC[C@H](N[C@@H](Cc3c[nH]c4ccccc34)C(=O)O)[C@@H]3Oc4c(O)ccc5c4[C@@]31CCN(C)[C@@H]2C5 [Compound 10a, (2S)-2-[(4,5α-Epoxy-3-hydroxy-14β-methoxy-17-methylmorphinan-6α-yl)-amino]-3-(1H-indolo-3yl)propionic Acid Dihydrochloride] | 1.02 ± 0.12 |  | 25.1 ± 9.3 | 0.51 ± 0.34 |  | 93 ± 9 | 0.36 ± 0.01 |  | 2.52 ± 1.41 | 102 ± 8 | 70.1 ± 20.5 |  | 61 ± 8 |  | 
CO[C@@]12CC[C@@H](N[C@@H](CC(=O)O)C(=O)O)[C@@H]3Oc4c(O)ccc5c4[C@@]31CCN(C)[C@@H]2C5 [Compound 13b, (2S)-2-[(4,5α-Epoxy-3-hydroxy-14β-methoxy-17-methylmorphinan-6β-yl)amino]butanedioic Acid Dihydrochloride] | 22.6 ± 2.2 |  | 351 ± 43 | 1.45 ± 0.01 | partial agonists | ~70 | 3.42 ± 0.05 |  | 11.8 ± 2.2 | 101 ± 1 | 753 ± 358 |  | 49 ± 7 |  | 
CO[C@@]12CC[C@H](N[C@@H](C(=O)O)C(C)C)[C@@H]3Oc4c(O)ccc5c4[C@@]31CCN(C)[C@@H]2C5 [Compound 16a] | 1.93 ± 0.24 |  | 202 ± 3 | 4.51 ± 2.35 |  | 105 ± 4 | 1.7 ± 0.09 | ca. 4 times | 1.12 ± 0.69 | 93 ± 4 | 2220 ± 818 | full agonists | 96 ± 16 | 2–3 times | 
CO[C@@]12CC[C@@H](NCCC(=O)O)[C@@H]3Oc4c(O)ccc5c4[C@@]31CCN(C)[C@@H]2C5 [Compound 20b, 3-[(4,5α-Epoxy-3-hydroxy-14β-methoxy-17-methylmorphinan-6β-yl)amino]propionic Acid Dihydrochloride] | 13.9 ± 1.7 |  | 71.4 ± 4.6 | 5.74 ± 0.47 |  | ~80 | 1.04 ± 0.04 |  | 20.1 ± 10.7 | 99 ± 3 | 622 ± 311 |  | 67 ± 12 |  | 1/13/69
CO[C@@]12CC[C@@H](NCCCC(=O)O)[C@@H]3Oc4c(O)ccc5c4[C@@]31CCN(C)[C@@H]2C5 [Compound 21b] | 6.61 ± 0.67 |  | 147 ± 13 | 12.3 ± 6.8 |  | 86 ± 7 | 1.41 ± 0.13 | 2–4 times | 6.06 ± 1.07 | 103 ± 6 | 3400 ± 1980 | full agonists | 74 ± 5 |  | 
